Results taken from patent US10369166B2 (priority 2014, dated 2019).
Values joined by “and” are separate entries in the source; they are usually repeats but may differ in a detail not shown here. Equal entries are not always repeated. Where two headings read alike, the source gives them in different places.

Key:
Ebola virus = conditions: in vivo
[1] = in vivo; cited from earlier work
COLLAGEN = conditions: cited from earlier work
(CAT B) CATHEPSIN B [2] = biological target: T1, (CAT B) CATHEPSIN B (Homo sapiens, UniProt P07858); assay type: biochemical
[3] = mouse, in vivo; cited from earlier work
[4] = in vivo
(CAT B) CATHEPSIN B [5] = biological target: T1, (CAT B) CATHEPSIN B; conditions: cited from earlier work
Ebolavirus Sudan Gulu = assay type: cell-based
TNF ALPHA = TNF ALPHA (Homo sapiens, UniProt P01375); conditions: cited from earlier work
[6] = in vivo, cited from earlier work
S-ADENOSYL HO[…] (SAHH) = S-ADENOSYL HO[…] (SAHH) (Homo sapiens, UniProt P23526); conditions: cited from earlier work
[7] = test system: G9a/GLP-mediated dimethylation of histone 3 on lysine 9; conditions: cited from earlier work
GLP = biological target: T2, GLP (Homo sapiens, UniProt Q9H9B1); conditions: cited from earlier work
T2 sequence (Q9H9B1 1-1298): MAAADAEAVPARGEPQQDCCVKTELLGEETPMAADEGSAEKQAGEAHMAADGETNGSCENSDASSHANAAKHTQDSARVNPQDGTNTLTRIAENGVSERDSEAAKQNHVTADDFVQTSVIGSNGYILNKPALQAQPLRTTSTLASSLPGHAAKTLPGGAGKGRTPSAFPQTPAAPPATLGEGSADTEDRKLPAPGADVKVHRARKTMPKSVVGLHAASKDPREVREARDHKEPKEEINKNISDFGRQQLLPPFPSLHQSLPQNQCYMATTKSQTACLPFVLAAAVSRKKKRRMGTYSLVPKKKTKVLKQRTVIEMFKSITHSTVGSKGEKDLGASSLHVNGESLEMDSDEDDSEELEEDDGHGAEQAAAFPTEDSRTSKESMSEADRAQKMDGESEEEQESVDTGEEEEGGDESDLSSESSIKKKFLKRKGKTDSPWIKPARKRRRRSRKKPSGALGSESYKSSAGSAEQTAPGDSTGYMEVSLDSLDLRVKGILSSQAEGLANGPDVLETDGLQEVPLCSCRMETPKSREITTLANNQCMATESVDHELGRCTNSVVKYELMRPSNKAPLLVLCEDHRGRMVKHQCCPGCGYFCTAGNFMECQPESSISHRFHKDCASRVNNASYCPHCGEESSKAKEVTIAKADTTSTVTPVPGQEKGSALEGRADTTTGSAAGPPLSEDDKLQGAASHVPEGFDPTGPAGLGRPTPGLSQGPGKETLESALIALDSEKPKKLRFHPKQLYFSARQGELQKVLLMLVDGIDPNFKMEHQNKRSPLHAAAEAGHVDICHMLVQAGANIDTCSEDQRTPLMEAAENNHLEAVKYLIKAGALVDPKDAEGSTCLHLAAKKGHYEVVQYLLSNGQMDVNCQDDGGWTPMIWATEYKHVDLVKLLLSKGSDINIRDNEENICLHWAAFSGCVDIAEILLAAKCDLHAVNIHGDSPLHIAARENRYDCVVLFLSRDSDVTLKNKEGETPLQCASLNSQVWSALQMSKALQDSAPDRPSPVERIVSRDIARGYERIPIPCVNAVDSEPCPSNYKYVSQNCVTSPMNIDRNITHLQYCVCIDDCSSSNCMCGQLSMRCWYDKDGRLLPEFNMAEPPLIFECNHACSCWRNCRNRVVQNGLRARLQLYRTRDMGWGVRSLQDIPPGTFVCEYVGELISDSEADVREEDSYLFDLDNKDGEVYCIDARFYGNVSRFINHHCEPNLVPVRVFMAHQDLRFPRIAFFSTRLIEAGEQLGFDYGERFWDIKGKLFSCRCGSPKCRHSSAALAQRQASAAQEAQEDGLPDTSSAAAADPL

MCF7 cells = conditions: cited from earlier work
folate = conditions: cited from earlier work

Sequence of TNF ALPHA (P01375 whole entry, species assumed): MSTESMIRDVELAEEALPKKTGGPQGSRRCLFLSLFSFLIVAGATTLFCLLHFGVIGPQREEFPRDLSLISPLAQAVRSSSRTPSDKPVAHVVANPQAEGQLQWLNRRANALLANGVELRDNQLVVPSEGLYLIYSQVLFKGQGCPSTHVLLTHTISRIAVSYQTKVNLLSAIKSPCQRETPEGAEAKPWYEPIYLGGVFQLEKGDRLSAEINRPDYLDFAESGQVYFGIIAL
Sequence of S-ADENOSYL HO[…] (SAHH) (P23526 whole entry, species assumed): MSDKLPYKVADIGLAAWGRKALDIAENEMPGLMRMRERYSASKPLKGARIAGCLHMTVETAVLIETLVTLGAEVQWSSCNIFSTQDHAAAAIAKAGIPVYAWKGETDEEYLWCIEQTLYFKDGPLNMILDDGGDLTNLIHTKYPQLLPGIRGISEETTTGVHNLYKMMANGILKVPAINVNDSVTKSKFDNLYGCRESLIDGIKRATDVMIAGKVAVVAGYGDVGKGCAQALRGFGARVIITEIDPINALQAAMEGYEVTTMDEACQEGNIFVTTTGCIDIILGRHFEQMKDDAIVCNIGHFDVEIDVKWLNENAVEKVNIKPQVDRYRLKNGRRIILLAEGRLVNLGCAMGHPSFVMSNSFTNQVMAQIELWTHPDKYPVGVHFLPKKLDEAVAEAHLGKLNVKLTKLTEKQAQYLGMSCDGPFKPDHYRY

Compound: Nc1nccc2c1ncn2[C@@H]1C=C(CO)[C@@H](O)[C@H]1O [3-DEAZANEPLANOCIN A]
- Residual estimated viral load (Ebola virus): 10^5 pfu/ml and 10^7 pfu/ml and 10^8 pfu/ml

Compound: Nc1ncnc2c1ncn2[C@@H]1O[C@H](COP(=O)(O)O)[C@@H](O)[C@H]1O [ADENOSINE MONOPHOSPHATE]
- LD50 [1]: 2900 mg/kg

Compound: N=C(N)NCCC[C@H](N)C(=O)O [Arginine]
- ED50 (COLLAGEN): 2.5 g

Compound: COc1ccc2cc3[n+](cc2c1OC)CCc1cc2c(cc1-3)OCO2 [BERBERINE]
- residual viral load after the product (sequential) (Ebola virus): 235 pfu/ml
- ED50 ((CAT B) CATHEPSIN B [2]): 0.185 g/day
- Oral LD50 [3]: (mouse): >29,586 mg/kg
- LD50 [4]: 2072 g
- IC50 ((CAT B) CATHEPSIN B [5]): 550 µM

Compound: CC1(C)CC[C@]2(C(=O)O)CC[C@]3(C)C(=CC[C@@H]4[C@@]5(C)CC[C@H](O)C(C)(C)[C@@H]5CC[C@]43C)[C@@H]2C1 [BETA-OLEANOLIC ACID]
- residual viral load after the product (sequential) (Ebola virus): 1875 pfu/ml
- ED50 ((CAT B) CATHEPSIN B [2]): 0.004 g
- IC50 ((CAT B) CATHEPSIN B [5]): 9 µM

Compound: C[C@H]1[C@H](C)CC[C@]2(C(=O)O)CC[C@]3(C)C(=CC[C@@H]4[C@@]5(C)CC[C@H](O)C(C)(C)[C@@H]5CC[C@]43C)[C@H]12 [BETA-URSOLIC ACID]
- residual viral load after the product (sequential) (Ebola virus): 12500 pfu/ml
- IC50 ((CAT B) CATHEPSIN B [5]): 10 µM

Compound: Nc1nccc2c1ncn2[C@@H]1O[C@H](CO)[C@@H](O)[C@H]1O [CA-C3-ADO, 3-deaza-adenosine]
- Molarity at last dilution (Ebolavirus Sudan Gulu): 200 µM

Compound: COc1cc(/C=C/C(=O)CC(=O)/C=C/c2ccc(O)c(OC)c2)ccc1O [CURCUMIN]
- ED50 (TNF ALPHA): 29 to 60 mg/kg
- residual viral load after the product (sequential) (Ebola virus): 25000 pfu/ml

Compound: CC(C)N(CCCNC(=O)Nc1ccc(C(C)(C)C)cc1)C[C@H]1O[C@@H](n2ccc3c(N)ncnc32)[C@H](O)[C@@H]1O [EPZ004777]
- Rat LD50 [6]: 590 mg/kg

Compound: CC(C)N(C[C@H]1O[C@@H](n2cnc3c(N)ncnc32)[C@H](O)[C@@H]1O)C1CC(CCc2nc3ccc(C(C)(C)C)cc3[nH]2)C1 (stereo partly drawn) [EPZ-5676]
- Molarity at last dilution (Ebolavirus Sudan Gulu): 0.4 µM

Compound: N[C@@H](CCS)C(=O)O [HOMOCYSTEINE]
- ED50 (E[…]): 0.4725 g

Compound: OC[C@H]1O[C@@H](n2cnc3c(O)ncnc32)[C@H](O)[C@@H]1O [INOSINE]
- ED50 (S-ADENOSYL HO[…] (SAHH)): 29 to 60 mg/kg

Compound: O=c1c(O)c(-c2ccc(O)cc2)oc2cc(O)cc(O)c12 [Kaemferol]
- LD50 [1]: 2170 mg/kg

Compound: COc1c(C)c2c(c(O)c1C/C=C(\C)CCC(=O)O)C(=O)OC2 [Mycophenolic acid]
- Residual estimated viral load (Ebola virus): 2 × 10^6 pfu/ml

Compound: CCCCN1C[C@H](O)[C@@H](O)[C@H](O)[C@H]1CO [N-B-DEOXYNOJIRIMYCIN]
- Residual estimated viral load (Ebola virus): 10^7 pfu/ml
- ED50 (α-glucosidase): 32.85 mg
- LD50 ([6]; rat, po): LD50 1,300 mg mg kg-1

Compound: NCCC[C@H](N)C(=O)O [Ornithine]
- ED50 (COLLAGEN): 3.5 g

Compound: O=c1c(O)c(-c2ccc(O)c(O)c2)oc2cc(O)cc(O)c12 [QUERCETIN]
- residual viral load after the product (sequential) (Ebola virus): 469 pfu/ml
- ED50 ((CAT B) CATHEPSIN B [2]): 0.03 g
- Oral LD50 ([6]; rat, po): (rat): 161 mg/kg
- LD50 [4]: 11.27 g
- IC50 ((CAT B) CATHEPSIN B [5]): 11 µM

Compound: CC(C)N(CCCNC(=O)Nc1ccc(C(C)(C)C)cc1)C[C@H]1O[C@@H](n2cc(Br)c3c(N)ncnc32)[C@H](O)[C@@H]1O [SGC 0946]
- Rat LD50 [6]: 590 mg/kg
- LD50 [4]: 41.3 g

Compound: COc1cc2c(NC3CCN(CC4CCCCC4)CC3)nc(N3CCCN(C(C)C)CC3)nc2cc1OCCCN1CCCCC1 [UNC0631]
- IC50 [7]: 0.004 µM
- LD50 [1]: 2 mg/kg

Compound: COc1cc2c(NC3CCN(C4CCCCC4)CC3)nc(N3CCCN(C(C)C)CC3)nc2cc1OCCCN1CCCCC1 [UNC0646]
- IC50 (GLP): 0.015 µM
- EC50 (MCF7 cells): 4.7 µM

Compound: [O]=[V]([O-])([O-])[O-] [VANADATE]
- residual viral load after the product (sequential) (Ebola virus): 212 pfu/ml

Compound: O=C1O[C@H]([C@@H](O)CO)C(O)=C1O [VITAMIN C]
- ED50 (TNF ALPHA): 29 to 60 mg/kg
- residual viral load after the product (sequential) (Ebola virus): 50000 pfu/ml
- LD50 [1]: 11,900 mg/kg

Compound: NC(=O)c1ncn([C@@H]2O[C@H](CO)[C@@H](O)[C@H]2O)n1 [ribovirin]
- Molarity at last dilution (Ebolavirus Sudan Gulu): 25 µM

Compound: NC(CCSCCCCC(=O)O)C(=O)O (stereo not drawn) [s-carboxybutyl DL homocysteine]
- LD50 [1]: 500 mg/kg

Compound: epigallocatechin-3 gallate [EGCG]
- residual viral load after the product (sequential) (Ebola virus): 106 pfu/ml
- IC50 (folate): 34.8 µM
